biological target: T1, CX3CR1 (Homo sapiens, UniProt P49238); assay: Inhibition of cell migration in fractalkine-induced chemotaxis assay; assay type: cell-based; settings: fractalkine-induced (0.3 nM) migration of CX3CR1-expressing B300 cells; preincubated with test compound for 30 minutes; Transwell, 3.5 hours at 37°C
T1 construct: expressed in transfected cells; host or cells: B300 cells
T1 sequence (P49238 1-355): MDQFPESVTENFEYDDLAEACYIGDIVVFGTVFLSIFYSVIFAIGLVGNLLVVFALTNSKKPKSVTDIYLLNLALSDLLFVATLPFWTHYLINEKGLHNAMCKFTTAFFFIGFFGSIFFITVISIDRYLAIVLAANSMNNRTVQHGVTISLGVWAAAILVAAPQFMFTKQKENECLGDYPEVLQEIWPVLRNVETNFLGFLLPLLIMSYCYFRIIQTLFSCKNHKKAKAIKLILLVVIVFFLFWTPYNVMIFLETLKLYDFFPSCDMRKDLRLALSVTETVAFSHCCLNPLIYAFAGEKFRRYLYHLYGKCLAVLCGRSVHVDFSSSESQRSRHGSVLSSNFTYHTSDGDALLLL
Method: The inhibitory effects of the example compounds on fractalkine-induced cell migration were examined using CX3CR1-transfected B300 cells
After equilibrating the Transwell plate (24-well clusters, pore size: 5 µm, manufactured by Corning Incorporated), a fractalkine solution (0.3 nM, manufactured by R&D Systems, Inc.) was added to the lower wells. CX3CR1-expressing B300 cells which were preincubated with the test compound (0.001, 0.003, 0.01 or 0.03 µM) for 30 minutes were placed in the upper layer wells, followed by incubation under the condition of 5% CO2 for 3.5 hours at 37°C. The number of cells migrated to the lower wells was evaluated using CellTiter (manufactured by Promega Corporation).
The inhibitory rate of the test compound on fractalkine-induced cell migration was calculated by the following formula, where [A] is the number of migrated cells in the presence of both fractalkine and the test compound, [B] is the number of migrated cells in the presence of fractalkine and in the absence of the test compound, and [C] is the number of migrated cells in the absence of both fractalkine and the test compound; the 50% inhibitory concentration (IC50) was calculated based on the inhibitory rate. Inhibitory rate (%) = [1-{(A-C)/(B-C)}] × 100

IC50 [nM] | SMILES
13 | CCCC(F)CN1CCC(NC(=O)[C@]2(CC(=O)O)CN(Cc3c(Cl)cccc3C(F)(F)F)C[C@@H]2C)CC1 (stereo partly drawn) [Example 1, 2-[(3S,4R)-1-{[2-chloro-6-(trifluoromethyl)phenyl]methyl}-3-{[1-(2-fluoropentyl)piperidin-4-yl]carbamoyl}-4-methylpyrrolidin-3-yl]acetic acid]
21 | C[C@H]1CN(Cc2c(Cl)cccc2Cl)C[C@@]1(CC(=O)O)C(=O)NC1CCN(CC2CCC(F)(F)CC2)CC1 [Example 2, 2-[(3S,4R)-1-[(2,6-Dichlorophenyl)methyl]-3-({1-[(4,4-difluorocyclohexyl)methyl]piperidin-4-yl}carbamoyl)-4-methylpyrrolidin-3-yl]acetic acid]
4 | C[C@H]1CN(Cc2c(Cl)cccc2C(F)(F)F)C[C@@]1(CC(=O)O)C(=O)NC1CCN(CC2=CCCCC2)CC1 [Example 3, 2-[(3S,4R)-1-{[2-Chloro-6-(trifluoromethyl)phenyl]methyl}-3-{[1-(cyclohex-1-en-1-ylmethyl)piperidin-4-yl]carbamoyl}-4-methylpyrrolidin-3-yl]acetic acid]
11 | Cc1cccc(Cl)c1CN1C[C@H](C)[C@](CC(=O)O)(C(=O)NC2CCN(CC3=CCCCC3)CC2)C1 [Example 6, 2-[(3S,4R)-1-[(2-Chloro-6-methylphenyl)methyl]-3-{[1-(cyclohex-1-en-1-ylmethyl)piperidin-4-yl]carbamoyl}-4-methylpyrrolidin-3-yl]acetic acid]
5 | C[C@H]1CN(Cc2c(Cl)cccc2C(F)(F)F)C[C@@]1(CC(=O)O)C(=O)NC1CCN(CC2=CCCC2)CC1 [Example 7, 2-[(3S,4R)-1-{[2-Chloro-6-(trifluoromethyl)phenyl]methyl}-3-{[1-(cyclopent-1-en-1-ylmethyl)piperidin-4-yl]carbamoyl}-4-methylpyrrolidin-3-yl]acetic acid]
16 | C[C@H]1CN(Cc2c(Cl)cccc2Cl)C[C@@]1(CC(=O)O)C(=O)N[C@H]1CCN(CC2=CCCCC2)C1 [Example 9, 2-[(3S,4R)-3-{[(3S)-1-(Cyclohex-1-en-1-ylmethyl)pyrrolidin-3-yl]carbamoyl}-1-[(2,6-dichlorophenyl)methyl]-4-methylpyrrolidin-3-yl]acetic acid]
14 | CCCCCCN1CCC(NC(=O)[C@]2(CC(=O)O)CN(Cc3c(Cl)cccc3C(F)F)C[C@@H]2C)CC1 [Example 10, 2-[(3S,4R)-1-{[2-Chloro-6-(difluoromethyl)phenyl]methyl}-3-[(1-hexylpiperidin-4-yl)carbamoyl]-4-methylpyrrolidin-3-yl]acetic acid]
6 | C[C@H]1CN(Cc2c(Cl)cccc2C(F)F)C[C@@]1(CC(=O)O)C(=O)NC1CCN(CC2=CCCCC2)CC1 [Example 12, 2-[(3S,4R)-1-{[2-Chloro-6-(difluoromethyl)phenyl]methyl}-3-{[1-(cyclohex-1-en-1-ylmethyl)piperidin-4-yl]carbamoyl}-4-methylpyrrolidin-3-yl]acetic acid]
16 | C[C@H]1CN(Cc2c(Cl)cccc2C(F)F)C[C@@]1(CC(=O)O)C(=O)NC1CCN(CC2=CCCC2)CC1 [Example 13, 2-[(3S,4R)-1-{[2-Chloro-6-(difluoromethyl)phenyl]methyl}-3-{[1-(cyclopent-1-en-1-ylmethyl)piperidin-4-yl]carbamoyl}-4-methylpyrrolidin-3-yl]acetic acid]
12 | C[C@H]1CN(Cc2c(Cl)cccc2C(F)F)C[C@@]1(CC(=O)O)C(=O)NC1CCN(CC2CCCCC2)CC1 [Example 14, 2-[(3S,4R)-1-{[2-Chloro-6-(difluoromethyl)phenyl]methyl}-3-{[1-(cyclohexylmethyl)piperidin-4-yl]carbamoyl}-4-methylpyrrolidin-3-yl]acetic acid]
